One series concerns the target T1, h-NK1 receptors (Homo sapiens, UniProt P25103).
T1 construct: expressed in transfected cells; host or cells: CHO cells (permanent expression), crude cell membranes
The series is described as follows: Evaluation of NK1 antagonist transport efficiency to the central nervous system using a h-NK1 receptor binding assay (brain extract after i.v. dosing of rats). Conditions: 5 min; compound extracted from brain of male SD rats 5 min after i.v. injection at the dose of 1 mg/kg; CHO cell membranes expressing h-NK1; read-out: inhibition rate of 125I-BH-Substance P binding to h-NK1 receptors. How it is done: A. Evaluation of NK1 Antagonist Transport Efficiency to the Cental Nervous System using a h-NK1 Receptor Binding Assay
(1) Administration of Test Compound and Extraction of the Compound from Brain
Male SD rats were given an i.v. injection of a solution containing a test compound (1 mg/kg). 5 Min later the animals were anesthetized by ether, bled and perfused through the aorta ascendens with 20 ml of saline. The brain was rapidly removed, weighed and homogenized in 4 vol. ice-cold distilled water by using Polytoron (KINEMATICA). To extract the test compound, 500 μl of the homogenate, 100 μl of methanol, 500 μl of 0.1 N NaOH and 4 ml of ethyl acetate were mixed by shaking for 10 min at room temperature. The organic phase (2.5 ml) was recovered by centrifugation at 3,000 rpm for 10 min, dried and dissolved in dimethyl sulfoxide.
(2) h-NK1 Receptor Binding Assay
(a) Crude CHO Cell Membrane Preparation
CHO cells permanently expressing h-NK1 receptors were harvested and homogenized with a Dounce homogenizer at 4° C. in a buffer (0.25 M sucrose, 25 mM Tris-HCl (pH 7.4), 10 mM MgCl2, 1 mM EDTA, 5 μg/ml p-APMSF). The homogenate was centrifuged (500×g, 10 min), and the pellet was resuspended in the same buffer, homogenized, and centrifuged. The two supernatants were combined and centrifuged (100,000×g, 1 hour). The crude cell membranes thus isolated were resuspended in a buffer (25 mM Tris-HCl (pH 7.4), 10 mM MgCl2, 1 mM. EDTA, 5 μg/ml p-APMSF) and stored at −80° C. until use.
(b) ^125I-BH-Substance P Binding to the Prepared Membrane
Cell membranes (6 μg/ml) were incubated with ^125I-BH-Substance P (0.1 nM) with or without the extracted compounds in 0.25 ml of a medium (50 mM Tris-HCl (pH 7.4), 5 mM MnCl2, 20 μg/ml chymostatin, 40 μg/ml bacitracin, 4 μg/ml leupeptin, 5 μg/ml p-APMSF, 200 μg/ml BSA) at 22° C. for 90 min. At the end of the incubation period, the contents were quickly filtered through a Blue Mat 11740 filter (pretreated with 0.1% polyethylenimine for 3 hours prior to use) by using SKATRON Cell Harvester. The filter was then washed with a washing buffer (50 mM Tris-HCl (pH 7.4), 5 mM MnCl2). The radioactivity was counted by using an auto gamma counter (Packard RIASTAR 5420A). All data presented are specific binding defined as that displaceable by 3 μM unlabeled Substance P.

Where a name gives a salt, the structure may show the parent alone. Bounds are passed on as bounds.

As usually defined, the inhibition is the change of the read-out against control, counted positive when it falls. The term melting point denotes the temperature of the solid-liquid transition.

T1 sequence (P25103 whole entry): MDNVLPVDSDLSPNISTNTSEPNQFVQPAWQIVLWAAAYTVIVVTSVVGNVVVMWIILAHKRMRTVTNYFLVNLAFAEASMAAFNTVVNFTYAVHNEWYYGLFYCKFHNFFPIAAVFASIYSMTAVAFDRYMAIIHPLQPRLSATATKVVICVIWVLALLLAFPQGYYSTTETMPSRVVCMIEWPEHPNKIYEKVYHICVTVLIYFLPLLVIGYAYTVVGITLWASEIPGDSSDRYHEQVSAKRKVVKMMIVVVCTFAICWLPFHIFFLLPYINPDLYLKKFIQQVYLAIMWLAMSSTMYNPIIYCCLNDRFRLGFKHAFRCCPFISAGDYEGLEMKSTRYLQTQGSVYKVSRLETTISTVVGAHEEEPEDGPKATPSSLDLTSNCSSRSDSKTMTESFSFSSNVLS

Take `O=C(c1cc(C(F)(F)F)cc(C(F)(F)F)c1)N1CCN(CC#CCNCc2cccnc2)C[C@H]1Cc1ccc2ccccc2c1` [Example 30, (2R)-1-[3,5-bis(trifluoromethyl)benzoyl]-4-[4-(3-pyridylmethylamino)-2-butynyl]-2-(2-naphthylmethyl)piperazine trihydrochloride]: on h-NK1 receptors, the inhibition at 1 mg/kg was > 80%.

Take `Cc1ccc(C[C@@H]2CN(CCOCCN3CCOCC3)CCN2C(=O)c2cc(C(F)(F)F)cc(C(F)(F)F)c2)cc1C` [Example 22, (2R)-1-[3,5-Bis(trifluoromethyl)benzoyl]-2-(3,4-dimethylbenzyl)-4-[2-(2-morpholinoethoxy)ethyl]piperazine dihydrochloride]: the inhibition at 1 mg/kg at h-NK1 receptors is > 80%.

`COC[C@H]1COCCN1CCCN1CCN(C(=O)c2cc(C(F)(F)F)cc(C(F)(F)F)c2)[C@H](Cc2ccc(C)c(C)c2)C1.Cl.Cl` [80-(6), (2R)-1-[3,5-Bis(trifluoromethyl)benzoyl]-2-(3,4-dimethylbenzyl)-4-[3-((3S)-3-methoxymethylmorpholino)propyl]piperazine dihydrochloride] registered a melting point of 55 to 60 °C. On h-NK1 receptors, the inhibition at 1 mg/kg is > 80%.

In the case of `CC[C@@H]1COCCN1CCN1CCN(C(=O)c2cc(C(F)(F)F)cc(C(F)(F)F)c2)[C@H](Cc2c[nH]c3ccccc23)C1` [81-(10), (2R)-1-[3,5-Bis(trifluoromethyl)benzoyl]-4-[2-((3R)-3-ethylmorpholino)ethyl]-2-[(1H-indol-3-yl)methyl]piperazine dihydrochloride], at h-NK1 receptors, the inhibition at 1 mg/kg was > 80%.

`COC[C@H]1CN(CC#CCN2CCN(C(=O)c3cc(C(F)(F)F)cc(C(F)(F)F)c3)[C@H](Cc3ccc(C)c(C)c3)C2)CCO1.Cl.Cl` [71-(6), (2R)-1-[3,5-Bis(trifluoromethyl)benzoyl]-2-(3,4-dimethylbenzyl)-4-[4-((2R)-2-methoxymethylmorpholino)-2-butynyl]piperazine dihydrochloride]: the melting point was 80 to 90 °C. Also, the inhibition at 1 mg/kg on h-NK1 receptors was > 80%.

As for `Cc1ccc(C[C@@H]2CN(CCCN3CCOCC3(C)C)CCN2C(=O)c2cc(C(F)(F)F)cc(C(F)(F)F)c2)cc1C.Cl.Cl` [78-(4), (2R)-1-[3,5-Bis(trifluoromethyl)benzoyl]-2-(3,4-dimethylbenzyl)-4-[3-(3,3-dimethylmorpholino)propyl]piperazine dihydrochloride], the melting point is 197 °C. For the same compound, on h-NK1 receptors, the inhibition at 1 mg/kg is > 80%.

Turning to `Cc1ccc(C[C@@H]2CN(CC#CCN3CCOCC(F)C3)CCN2C(=O)c2cc(C(F)(F)F)cc(C(F)(F)F)c2)cc1C` (stereo partly drawn) [70-(2), (2R)-1-[3,5-Bis(trifluoromethyl)benzoyl]-2-(3,4-dimethylbenzyl)-4-[4-(tetrahydro-6-fluoro-1,4-oxazepin-4(5H)-yl)-2-butynyl]piperazine dihydrochloride], the inhibition at 1 mg/kg on h-NK1 receptors was > 80%.

The compound `Cc1ccc(C[C@@H]2CN(CC#CCN3[C@@H](C)COC[C@@H]3C)CCN2C(=O)c2cc(C(F)(F)F)cc(C(F)(F)F)c2)cc1C.Cl.Cl` [71-(3), (2R)-1-[3,5-Bis(trifluoromethyl)benzoyl]-2-(3,4-dimethylbenzyl)-4-[4-((3S,5S)-3,5-dimethylmorpholino)-2-butynyl]piperazine dihydrochloride] returned a melting point of 160 to 165 °C. On h-NK1 receptors, the inhibition at 1 mg/kg is > 80%.

Consider `Cc1ccc(C[C@@H]2CN(CC#CCN3CCOCC3(C)C)CCN2C(=O)c2cc([N+](=O)[O-])cc(C(F)(F)F)c2)cc1C.Cl.Cl` [90-(6), (2R)-2-(3,4-Dimethylbenzyl)-4-[4-(3,3-dimethylmorpholino)-2-butynyl]-1-[3-nitro-5-(trifluoromethyl)benzoyl]piperazine dihydrochloride], for which the melting point lay in the range of 157 to 200 °C. For the same compound, the inhibition at 1 mg/kg at h-NK1 receptors is > 80%.

`Cc1ccc(C[C@@H]2CN(CC#C[C@@H]3COCCN3)CCN2C(=O)c2cc(C(F)(F)F)cc(C(F)(F)F)c2)cc1C.Cl.Cl` [Example 68, (2R)-1-[3,5-bis(trifluoromethyl)benzoyl]-2-(3,4-dimethylbenzyl)-4-[3-[(3R)-morpholin-3-yl]-2-propynyl]piperazine dihydrochloride] displayed a melting point of 190 to 191 °C. Also, the inhibition at 1 mg/kg at h-NK1 receptors was > 80%.

`CNc1cc(C(=O)N2CCN(CC#CCN3CCOCC3(C)C)C[C@H]2Cc2ccc(C)c(C)c2)cc(C(F)(F)F)c1.Cl.Cl` [90-(4), (2R)-2-(3,4-Dimethylbenzyl)-4-[4-(3,3-dimethylmorpholino)-2-butynyl]-1-[3-(methylamino)-5-(trifluoromethyl)benzoyl]piperazine dihydrochloride] returned a melting point of 195 to 205 °C. Also, the inhibition at 1 mg/kg on h-NK1 receptors was > 80%.

On to `Cc1ccc(C[C@@H]2CN(CC#CCN3CCOCC3(C)C)CCN2C(=O)c2cc(N(C)C)cc(C(F)(F)F)c2)cc1C` [90-(5), (2R)-1-[3-(Dimethylamino)-5-(trifluoromethyl)benzoyl]-2-(3,4-dimethylbenzyl)-4-[4-(3,3-dimethylmorpholino)-2-butynyl]piperazine dihydrochloride], for which the inhibition at 1 mg/kg on h-NK1 receptors was > 80%.

With `O=C(c1cc(C(F)(F)F)cc(C(F)(F)F)c1)N1CCN(CC#Cc2cccnc2)C[C@H]1Cc1c[nH]c2ccccc12` [Example 1-(1), (2R)-1-[3,5-bis(trifluoromethyl)benzoyl]-2-[(1H-indol-3-yl)methyl]-4-[3-(3-pyridyl)-2-propynyl]piperazine], at h-NK1 receptors, the inhibition at 1 mg/kg was > 80%.

Take `COC[C@H]1COCCN1CCCCN1CCN(C(=O)c2cc(C(F)(F)F)cc(C(F)(F)F)c2)[C@H](Cc2ccc(C)c(C)c2)C1` [Example 82, (2R)-1-[3,5-bis(trifluoromethyl)benzoyl]-2-(3,4-dimethylbenzyl)-4-[4-((3S)-3-methoxymethylmorpholino)butyl]piperazine dihydrochloride]: the inhibition at 1 mg/kg on h-NK1 receptors was > 80%.

For the compound `COc1ccc(CC2CN(CC#CCN3CCOCC3(C)C)CCN2C(=O)c2cc(C(F)(F)F)cc(C(F)(F)F)c2)cc1C` (stereo not drawn) [85-(3), 1-[3,5-Bis(trifluoromethyl)benzoyl]-4-[4-(3,3-dimethylmorpholino)-2-butynyl]-2-(4-methoxy-3-methylbenzyl)piperazine dihydrochloride], the inhibition at 1 mg/kg at h-NK1 receptors was > 80%.

For the compound `CC[C@@H]1COCCN1CCN1CCN(C(=O)c2cc(C(F)(F)F)cc(C(F)(F)F)c2)[C@H](Cc2ccc(C)c(C)c2)C1` [80-(1), (2R)-1-[3,5-Bis(trifluoromethyl)benzoyl]-2-(3,4-dimethylbenzyl)-4-[2-((3R)-3-ethylmorpholino)ethyl]piperazine dihydrochloride], the inhibition at 1 mg/kg at h-NK1 receptors is > 80%.

As to `Cc1ccc(C[C@@H]2CN(CC#CCN3CCOC[C@@H]3CF)CCN2C(=O)c2cc(C(F)(F)F)cc(C(F)(F)F)c2)cc1C` [70-(1), (2R)-1-[3,5-Bis(trifluoromethyl)benzoyl]-2-(3,4-dimethylbenzyl)-4-[4-((3R)-3-fluoromethylmorpholino)-2-butynyl]piperazine dihydrochloride], the inhibition at 1 mg/kg at h-NK1 receptors is > 80%.

Turning to `CC[C@H]1COCCN1CC#CCN1CCN(C(=O)c2cc(C(F)(F)F)cc(C(F)(F)F)c2)[C@H](Cc2ccc(C)c(C)c2)C1` [Example 38, (2R)-1-[3,5-bis(trifluoromethyl)benzoyl]-4-[4-((3S)-3-ethylmorpholino)-2-butynyl]-2-(3,4-dimethylbenzyl)piperazine dihydrochloride], the inhibition at 1 mg/kg on h-NK1 receptors was > 80%.

On to `CC1(C)COCCN1CC#CCN1CCN(C(=O)c2cc(C(F)(F)F)cc(C(F)(F)F)c2)C(Cc2ccc3c(c2)OCO3)C1` (stereo not drawn) [Example 84, 1-[3,5-bis-(trifluoromethyl)benzoyl]-4-[4-(3,3-dimethylmorpholino)-2-butynyl]-2-(3,4-methylenedioxybenzyl)piperazine dihydrochloride], for which the inhibition at 1 mg/kg at h-NK1 receptors is > 80%.

For `CC[C@H]1COCCN1CC#CCN1CCN(C(=O)c2cc(C(F)(F)F)cc(C(F)(F)F)c2)[C@H](Cc2c[nH]c3ccccc23)C1` [73-(2), (2R)-1-[3,5-Bis(trifluoromethyl)benzoyl]-4-[4-((3S)-3-ethylmorpholino)-2-butynyl]-2-[(1H-indol-3-yl)methyl]piperazine dihydrochloride], the inhibition at 1 mg/kg on h-NK1 receptors is > 80%.

The values are drawn from patent US6924278B2, “Aroyl-piperazine derivatives, their preparation and their use as tachykinin antagonists” (Fujisawa Pharmaceutical Co., Ltd., priority 1997, dated 2005).
